Assay results published in ChEMBL document CHEMBL3797052 (Eur J Med Chem, 2016).

Key:
[1] = test system: Serine/threonine-protein kinase B-raf (Homo sapiens), P15056 [V600E]; test: Inhibition of BRAF V600E mutant (unknown origin) at 10 uM measured after 40 mins by scintillation counting
[2] = Antiproliferative activity against human SF268 cells assessed as growth inhibition after 48 hrs by sulforhodamine B assay; type: functional; settings: SF-268, 48 h
[3] = Antiproliferative activity against human COLO205 cells assessed as cell growth at 10^-6 M after 48 hrs by sulforhodamine B assay; type: functional; settings: COLO 205, 48 h, read-out: Activity
[4] = Antiproliferative activity against human Hs 578T cells assessed as growth inhibition after 48 hrs by sulforhodamine B assay; type: functional; settings: for CC50: read-out: LC50 (the source's name)
[5] = test system: NCI-H226; test: Antiproliferative activity against human NCI-H226 cells assessed as cell growth at 10^-6 M after 48 hrs by sulforhodamine B assay; type: functional; settings: NCI-H226, 48 h, read-out: Activity
[6] = Antiproliferative activity against human SNB75 cells assessed as cell growth at 10^-4 M after 48 hrs by sulforhodamine B assay; type: functional; settings: SNB-75, 48 h, read-out: Activity
[7] = Antiproliferative activity against human HOP92 cells assessed as cell growth at 10^-7 M after 48 hrs by sulforhodamine B assay; type: functional; settings: HOP-92, 48 h, read-out: Activity
[8] = Antiproliferative activity against human OVCAR4 cells assessed as growth inhibition after 48 hrs by sulforhodamine B assay; type: functional; settings: OVCAR-4, 48 h
[9] = Antiproliferative activity against human UO31 cells assessed as cell growth at 10^-7 M after 48 hrs by sulforhodamine B assay; type: functional; settings: UO-31, 48 h, read-out: Activity
[10] = Antiproliferative activity against human SF268 cells assessed as cell growth at 10^-4 M after 48 hrs by sulforhodamine B assay; type: functional; settings: SF-268, 48 h, read-out: Activity
[11] = test system: CCRF-CEM; test: Antiproliferative activity against human CCRF-CEM cells assessed as cell growth at 10^-8 M after 48 hrs by sulforhodamine B assay; type: functional; settings: read-out: Activity
[12] = test system: A549; test: Antiproliferative activity against human A549/ATCC cells assessed as cell growth at […] after 48 hrs by sulforhodamine B assay; type: functional; settings: A549, 48 h, read-out: Activity
[13] = Antiproliferative activity against human HCT15 cells assessed as cell growth at 10^-6 M after 48 hrs by sulforhodamine B assay; type: functional; settings: HCT-15, 48 h, read-out: Activity
[14] = test system: ACHN; test: Antiproliferative activity against human ACHN cells assessed as cell growth at 10^-4 M after 48 hrs by sulforhodamine B assay; type: functional; settings: read-out: Activity
[15] = Antiproliferative activity against human HCT116 cells assessed as growth inhibition after 48 hrs by sulforhodamine B assay; type: functional; settings: HCT-116, 48 h
[16] = Antiproliferative activity against human IGROV1 cells assessed as cell growth at 10^-4 M after 48 hrs by sulforhodamine B assay; type: functional; settings: IGROV-1, 48 h, read-out: Activity
[17] = Antiproliferative activity against human UO31 cells assessed as cell growth at 10^-4 M after 48 hrs by sulforhodamine B assay; type: functional; settings: UO-31, 48 h, read-out: Activity
[18] = Antiproliferative activity against human TK10 cells assessed as cell growth at 10^-6 M after 48 hrs by sulforhodamine B assay; type: functional; settings: TK-10, 48 h, read-out: Activity
[19] = Antiproliferative activity against human HCT15 cells assessed as growth inhibition after 48 hrs by sulforhodamine B assay; type: functional; settings: HCT-15, 48 h
[20] = Antiproliferative activity against human COLO205 cells assessed as cell growth at 10^-7 M after 48 hrs by sulforhodamine B assay; type: functional; settings: COLO 205, 48 h, read-out: Activity
[21] = Antiproliferative activity against human HOP62 cells assessed as cell growth at 10^-7 M after 48 hrs by sulforhodamine B assay; type: functional; settings: HOP-62, 48 h, read-out: Activity
[22] = Antiproliferative activity against human OVCAR4 cells assessed as cell growth at 10^-4 M after 48 hrs by sulforhodamine B assay; type: functional; settings: OVCAR-4, 48 h, read-out: Activity
[23] = test system: SK-MEL-2; test: Antiproliferative activity against human SK-MEL-2 cells assessed as growth inhibition after 48 hrs by sulforhodamine B assay; type: functional; settings: SK-MEL-2, 48 h; for CC50: read-out: LC50 (the source's name)
[24] = test system: SK-MEL-2; test: Antiproliferative activity against human SK-MEL-2 cells assessed as cell growth at 10^-7 M after 48 hrs by sulforhodamine B assay; type: functional; settings: SK-MEL-2, 48 h, read-out: Activity
[25] = Antiproliferative activity against human HCT116 cells assessed as cell growth at 10^-6 M after 48 hrs by sulforhodamine B assay; type: functional; settings: HCT-116, 48 h, read-out: Activity
[26] = test system: ACHN; test: Antiproliferative activity against human ACHN cells assessed as cell growth at 10^-7 M after 48 hrs by sulforhodamine B assay; type: functional; settings: read-out: Activity
[27] = test system: MCF7; test: Antiproliferative activity against human MCF7 cells assessed as cell growth at 10^-7 M after 48 hrs by sulforhodamine B assay; type: functional; settings: MCF7, 48 h, read-out: Activity
[28] = Antiproliferative activity against human LOXIMVI cells assessed as cell growth at 10^-6 M after 48 hrs by sulforhodamine B assay; type: functional; settings: LOX IMVI, read-out: Activity
[29] = test system: SR; test: Antiproliferative activity against human SR cells assessed as cell growth at 10^-8 M after 48 hrs by sulforhodamine B assay; type: functional; settings: read-out: Activity
[30] = Antiproliferative activity against human BT549 cells assessed as growth inhibition after 48 hrs by sulforhodamine B assay; type: functional; settings: BT-549, 48 h; for CC50: read-out: LC50 (the source's name)
[31] = test system: T47D; test: Antiproliferative activity against human T47D cells assessed as cell growth at 10^-6 M after 48 hrs by sulforhodamine B assay; type: functional; settings: read-out: Activity
[32] = Antiproliferative activity against human RXF393 cells assessed as cell growth at 10^-8 M after 48 hrs by sulforhodamine B assay; type: functional; settings: RXF 393, 48 h, read-out: Activity
[33] = Antiproliferative activity against human PC3 cells assessed as growth inhibition after 48 hrs by sulforhodamine B assay; type: functional; settings: PC-3, 48 h
[34] = test system: K562; test: Antiproliferative activity against human K562 cells assessed as cell growth at 10^-7 M after 48 hrs by sulforhodamine B assay; type: functional; settings: K562, 48 h, read-out: Activity
[35] = Antiproliferative activity against human Hs 578T cells assessed as cell growth at 10^-4 M after 48 hrs by sulforhodamine B assay; type: functional; settings: read-out: Activity
[36] = Antiproliferative activity against human HCT15 cells assessed as cell growth at 10^-8 M after 48 hrs by sulforhodamine B assay; type: functional; settings: HCT-15, 48 h, read-out: Activity
[37] = test system: MDA-MB-468; test: Antiproliferative activity against human MDA-MB-468 cells assessed as cell growth at […] after 48 hrs by sulforhodamine B assay; type: functional; settings: MDA-MB-468, 48 h, read-out: Activity

Chain of Serine/threonine-protein kinase B-raf (Homo sapiens), P15056 [V600E] (P15056 whole entry V600E): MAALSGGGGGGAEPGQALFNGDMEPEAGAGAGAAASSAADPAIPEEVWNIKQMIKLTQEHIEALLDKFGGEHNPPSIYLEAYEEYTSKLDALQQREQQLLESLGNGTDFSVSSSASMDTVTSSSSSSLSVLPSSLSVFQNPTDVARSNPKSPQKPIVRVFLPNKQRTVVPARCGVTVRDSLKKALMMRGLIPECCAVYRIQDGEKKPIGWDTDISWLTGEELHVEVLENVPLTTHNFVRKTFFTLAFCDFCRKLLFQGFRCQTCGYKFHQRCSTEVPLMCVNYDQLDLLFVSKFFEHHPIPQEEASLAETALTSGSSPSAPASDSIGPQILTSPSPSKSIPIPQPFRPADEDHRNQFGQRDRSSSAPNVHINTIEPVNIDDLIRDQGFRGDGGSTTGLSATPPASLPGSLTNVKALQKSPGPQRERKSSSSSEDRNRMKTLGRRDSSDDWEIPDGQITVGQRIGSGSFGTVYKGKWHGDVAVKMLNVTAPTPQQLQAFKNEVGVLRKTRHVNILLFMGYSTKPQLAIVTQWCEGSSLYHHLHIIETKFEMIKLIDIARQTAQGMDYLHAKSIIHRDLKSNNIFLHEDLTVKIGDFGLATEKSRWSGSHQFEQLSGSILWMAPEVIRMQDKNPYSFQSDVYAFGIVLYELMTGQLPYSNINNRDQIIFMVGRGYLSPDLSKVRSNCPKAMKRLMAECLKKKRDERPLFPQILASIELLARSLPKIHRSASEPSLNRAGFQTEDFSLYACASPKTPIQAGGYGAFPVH

With `CNC(=O)c1cc(Oc2ccc3nc(NC(=O)Nc4ccc(Cl)c(C(F)(F)F)c4)sc3c2)ccn1` the inhibition [1] was 55.1%, the GI50 [2] was 2.34 µM and the LC50 (concentration killing 50% of cells) [2] was greater than 100 µM. It also gave a TGI [2] of 16.4 µM, a growth at 1 µM [3] of 86% and a GI50 [4] of 1.53 µM. It also gave a TGI [4] of 6.27 µM, a CC50 [4] greater than 100 µM and a growth at 1 µM [5] of 98%. The growth at 100 µM [6] was -80%, the growth at 0.1 µM [7] was 80% and the GI50 [8] was 1.59 µM. For the same compound, the TGI [8] was 3.31 µM, the growth at 0.1 µM [9] was 107% and the growth at 100 µM [10] was -5%. For the same compound, the growth at 0.01 µM [11] was 105%, the growth at 0.1 µM [12] was 105% and the growth at 1 µM [13] was 74%. For the same compound, the growth at 100 µM [14] was -62%, the GI50 [15] was 1.89 µM and the LC50 (concentration killing 50% of the starting cells) [15] was greater than 100 µM. For the same compound, the TGI [15] was 5.39 µM, the growth at 100 µM [16] was -35% and the growth at 100 µM [17] was 28%. The growth at 1 µM [18] was 109%, the GI50 [19] was 1.95 µM and the LC50 [19] was greater than 100 µM. For the same compound, the growth at 0.1 µM [20] was 106%, the growth at 0.1 µM [21] was 95% and the growth at 100 µM [22] was -15%. For the same compound, the GI50 [23] was 5.69 µM, the TGI [23] was 47 µM and the CC50 [23] was greater than 100 µM. For the same compound, the growth at 0.1 µM [24] was 99%, the growth at 1 µM [25] was 80% and the growth at 0.1 µM [26] was 102%. For the same compound, the growth at 0.1 µM [27] was 89%, the growth at 1 µM [28] was 87% and the growth at 0.01 µM [29] was 110%. For the same compound, the GI50 [30] was 2.64 µM, the TGI [30] was 9.73 µM and the CC50 [30] was greater than 100 µM. It also gave a growth at 1 µM [31] of 43%, a growth at 0.01 µM [32] of 87% and a GI50 [33] of 1.42 µM. The growth at 0.1 µM [34] was 104%, the growth at 100 µM [35] was -12% and the growth at 0.01 µM [36] was 97%. It also gave a growth at 0.01 µM [37] of 86%.

`CNC(=O)c1cc(Oc2ccc3nc(NC(=O)Nc4cc(C(F)(F)F)cc(C(F)(F)F)c4)sc3c2)ccn1` showed an inhibition [1] of 49.9%, a GI50 [2] of 1.27 µM and an LC50 (concentration killing 50% of cells) [2] of 6.44 µM. It also gave a TGI [2] of 2.86 µM, a growth at 1 µM [3] of 46% and a GI50 [4] of 1.65 µM. It also gave a TGI [4] of 4.84 µM, a CC50 [4] greater than 100 µM and a growth at 1 µM [5] of 71%. For the same compound, the growth at 100 µM [6] was -75%, the growth at 0.1 µM [7] was 98% and the GI50 [8] was 0.958 µM. The TGI [8] was 2.73 µM, the CC50 ([8]; read-out: LC50 (the source's name)) was 7.58 µM and the growth at 0.1 µM [9] was 94%. The growth at 100 µM [10] was -91%, the growth at 0.01 µM [11] was 111% and the growth at 0.1 µM [12] was 109%. The growth at 1 µM [13] was 76%, the growth at 100 µM [14] was -80% and the GI50 [15] was 1.12 µM. The LC50 (concentration killing 50% of the starting cells) [15] was 5.37 µM, the TGI [15] was 2.46 µM and the growth at 100 µM [16] was -60%. It also gave a growth at 100 µM [17] of -79%, a growth at 1 µM [18] of 87% and a GI50 [19] of 1.5 µM. It also gave an LC50 [19] of 7.32 µM, a TGI [19] of 3.31 µM and a growth at 0.1 µM [20] of 96%. The growth at 0.1 µM [21] was 91%, the growth at 100 µM [22] was -57% and the GI50 [23] was 1.05 µM. The TGI [23] was 3.13 µM, the CC50 [23] was 9.31 µM and the growth at 0.1 µM [24] was 97%. For the same compound, the growth at 1 µM [25] was 57%, the growth at 0.1 µM [26] was 99% and the growth at 0.1 µM [27] was 87%. The growth at 1 µM [28] was 63%, the growth at 0.01 µM [29] was 99% and the GI50 [30] was 1.34 µM. The TGI [30] was 3.07 µM, the CC50 [30] was 7.05 µM and the growth at 1 µM [31] was 32%. The growth at 0.01 µM [32] was 89%, the GI50 [33] was 0.611 µM and the LC50 [33] was 7.07 µM. The TGI [33] was 2.29 µM, the growth at 0.1 µM [34] was 97% and the growth at 100 µM [35] was -38%. For the same compound, the growth at 0.01 µM [36] was 88% and the growth at 0.01 µM [37] was 84%.
